Results published in patent US6184254A, “Methods of identifying modulators of perivascular sensory nerve Ca2+ receptors” (priority 1998, dated 2001).
“Also recorded” adds a separate entry of the source.

Assays:
[1] = tested on: mesenteric resistance arteries; test: Ca2+-induced relaxation of isolated mesenteric resistance arteries (wire myograph); set-up: species or system rat
Description: Branch I and II mesenteric resistance arteries, internal diameter […], are isolated from the mesenteric arcade of male Wistar rats and placed in ice cold physiologic salt solution (PSS) of the following composition in mM: NaCl, 130-140; KCl, 4.7; MgSO4.7H2 O, 1.17; NaHCO3, 5-15; KH2 PO4, 1.15 and Na2 HPO4, 1.10, CaCl2, 1.0; HEPES, 50; and glucose, 5, with a pH of 7.4 when gassed with 95% air, 5% CO2.
After cleaning of fat and connective tissue, the arterial segments are denuded of endothelium by rubbing a human hair in and out of the lumen. The vessel segments are then mounted between a force transducer and translation stage of a wire myograph using tungsten wire and the PSS is warmed to 37° C. and gassed with 95% air, 5% CO2 to provide a pH of 7.4. The vessel segments are then stretched to a length which is equivalent to an internal diameter of […] and allowed to equilibrate for 30 minutes. […]
Mesenteric resistance artery segments are isolated from sham treated and denervated rats and prepared for measurement of isometric force generation using the wire myograph system. […] For each vessel, the maximal level of relaxation is recorded and used for comparisons. At the end of the protocol, the ability of the vessel to relax in response to addition of sodium nitroprusside (SNP) is assessed to determine the ability to relax in response to a non-neural stimulus. […]

mammalian arteries = details: slightly supraphysiologic concentrations; cited from earlier work
[2] = tested on: mesenteric resistance arteries; test: Isometric force/active stress of Ca2+-depleted mesenteric resistance arteries; set-up: species or system Wistar rat
Protocol: In the course of studies designed to examine the hypothesis that the Ca^2+ force relationship of resistance arteries is altered in genetically hypertensive rats, it was discovered that physiologic concentrations of extracellular Ca^2+ affected the repeated contraction elicited by norepinephrine in Ca^2+ -free medium.
(§1) Mesenteric resistance arteries were isolated from Wistar rats; and intracellular Ca^2+ and isometric force were measured using a fura-based method and w ire myography (Bian, et aL, 1995b). Vessels were depleted of releasable Ca^2+ by repeated contraction with norepinephrine; and extracellular Ca^2+ was then cumulatively added back from 0.025-2.5 mmol/L in the presence of a n agonist. […] It was concluded that extracellular Ca^2+ limits force generation by depressing myofilament Ca^2+ sensitivity and decreasing intracellular Ca^2+ secondary to activation of a Ca^2+ -sensitive K^+ channel.

[3] = tested on: mesenteric resistance arteries; details: cited from earlier work
rat aorta = details: cited from earlier work
blood pressure [4] = details: cited from earlier work
aorta = details: high extracellular Ca2+; cited from earlier work
[5] = tested on: mesenteric resistance arteries of SHR and WKY; test: Response to norepinephrine of SHR and WKY mesenteric resistance arteries at different extracellular Ca2+; set-up: species or system rat (SHR and WKY); details: 1.5 and 2.5 vs 1.25 mmol/L Ca2+, both strains
Protocol: In an initial series of experiments the isometric force response of mesenteric resistance arteries of SHR and WKY was assessed to cumulative addition of norepinephrine in the presence of 1.25, 1.5 and 2.5 mmol/L extracellular Ca^2+ (Li, J., et al., 1993).

[6] = tested on: renal artery segment pre-contracted with norepinephrine; test: Superfusion bioassay with renal artery segment; set-up: species or system rat
Description: The renal artery used as the bioassay segment was isolated and mounted between a fixed support and a force transducer and the lack of response to addition of Ca^2+ was verified (FIG. 9A). The bioassay segment was then superfused with PSS that was allowed to drip across a mesenteric arcade attached to PE-10 tubing; the cut ends of the arcade were tied with suture material to prevent egress of endothelium-derived factors. […] To further examine the possibility that a diffusible substance was released from the mesenteric arcade in response to 5 mM Ca^2+, the superfusate was collected and stored on ice for approximately 45 minutes. The bioassay segment was then returned to the organ chamber, recontracted with norepinephrine and the response to Ca^2+ and to the collected superfusate were assessed.

[7] = tested on: intracellular Ca^2+ of mesenteric resistance arteries; test: Intracellular Ca2+ (fura-based) of mesenteric resistance arteries; set-up: species or system Wistar rat; details: 1.6 and 2.5 mmol/L Ca2+
Protocol: as §1

blood pressure [8] = details: SHR; cited from earlier work
rat tail arteries = details: raising Ca2+ from 4.1 to 20.1 mmol/L; cited from earlier work
cremaster arterioles = details: Ca2+ 0 to 5.1 mM; cited from earlier work
[9] = tested on: CGRP nerve fiber density of mesenteric resistance arteries; test: CGRP nerve staining/density after capsaicin-induced sensory denervation; type: in vivo, rat
Protocol: (§2) Pregnant rats are received at 15 days gestation and pups are delivered in a vivarium. On the first and second days of life, each pup is lightly anesthetized with halothane and given s.c. injection of capsaicin (50 mg/kg) or vehicle. The rats are then kept until 7-9 weeks of age at which time they are euthanized and tissue isolated. Sub-acute regional nerve destruction is performed. […] The would is closed and the rats are allowed to recover for three days following which branches leading from the treated vessel segments are harvested for study. For each procedure, two methods are used to verify denervation of the arteries. One is a functional assay in which arteries isolated from sham or denervated rats are electrically stimulated under conditions that selectively activate perivascular sensory dilator nerves; the second is an immunocytochemical approach.
At 8 weeks of age the rats were killed and whole mount preparations of mesenteric resistance arteries were prepared, stained with polyclonal anti-calcitonin gene related peptide (CGRP), which is the primary sensory nerve transmitter, and quantified using stereomorphologic methods (Schmidt-Schoenbein et al., 1977).

neurogenic inflammation = details: denervation and desensitization by treatment with capsaicin; cited from earlier work
[10] = tested on: Ca^2+-induced relaxation of mesenteric resistance arteries; test: Inhibition of Ca2+-induced relaxation of mesenteric resistance arteries by antagonists or denervation; set-up: species or system rat
perivascular CaR = test: Perivascular CaR expression after capsaicin-induced denervation; type: in vivo, rat; details: KK3 antiserum
Protocol: as §2, with “One is a functional assay in which arteries isolated from sham or denervated rats are electrically stimulated under conditions that selectively activate perivascular sensory dilator nerves; the second is an immunocytochemical approach.” left out
The effect of sensory denervation on perivascular nerve CaR expression is assessed using western blot analysis. […] The membranes are then stained with monoclonal anti-parathyroid CaR (1:7500) and anti-smooth muscle α-actin, then visualized using the enhanced chemiluminescence, and quantified using laser densitometry. The relative expression of CaR in each sample is then assessed as the ratio of the density of CaR staining; α-actin staining. […]
The results have been presented (Mupanomunda et al., 1997). Additional studies quantify the effect of capsaicin-induced denervation on CaR content using western blot analysis.

Structure (SMILES): [Ca+2] [Ca^2+]
- relationship of 3 mM Ca2+-induced relaxation with CaR content ([1]; 5 μM norepinephrine): positively correlated
- relaxation response of precontracted artery to Ca2+ ([1]; 1.5, 2, 3, 5, 7.5 and 10 mmol/L): biphasic relaxation response
- effect on force generation (mammalian arteries): depress force generation
- effect on force ([2]; Ca2+ between 0.01 and 0.8 mmol/L): increase in force
- steady state force and Ca2+ in ([2]; Ca2+ from 0.8 to 1.6, FIG. 2): decreased steady state force but not steady state Ca^2+in
- effect on active stress ([2]; norepinephrine, serotonin and PGF2α contraction, not K+, 0.8 to 1.6 and 1.6 to 2.5 mmol/L): decreased active stress
- effect on force ([2]; raising Ca2+ from 0.8 to 1.6 or 1.6 to 2.5 mmol/L): caused relaxation; also recorded: decrease in force and Ca^2+
- EC50 ([3]; cumulatively raising extracellular Ca2+ above 1.5 mM, n=12, read-out: ED50 value of Ca2+-induced relaxation): 2400 ± 170 µM
- extent of relaxation ([3]; raising extracellular Ca2+ above 1.5 mM): nearly complete relaxation
- effect on isolated arteries ([3]; raising extracellular Ca2+ from 1.0 mM to 1.5 mM): relaxes isolated arteries
- effect of extracellular Ca2+ on K+-induced contraction (rat aorta): depressed
- blood pressure lowering effect of Ca2+ supplementation (blood pressure [4]; clinical trials, overall): small overall blood pressure lowering effect
- blood pressure response to Ca2+ supplementation in sub-groups (blood pressure [4]; sub-groups): significant fall in blood pressure
- effect on early force response of the aorta to epinephrine (aorta): suppress the early force response
- effect on later steady state response of the aorta (aorta): enhanced
- response to low dose norepinephrine [5]: significantly depressed
- effect on renal artery bioassay segment when superfused over the donor segment ([6]; 5 mM Ca2+): caused relaxation
- direct effect on bioassay (renal artery) vessel ([6]; 5 mM Ca2+ added directly): without effect; also recorded: absence of response
- direct effect on renal artery vessel after recontraction ([6]; Ca2+ 1.5-5.0 mM): no effect
- steady state intracellular Ca2+ [7]: only decreased significantly in response to 2.5 mmol/L extracellular Ca^2+
- effect of elevated dietary calcium intake on blood pressure (blood pressure [8]): lowers blood pressure
- effect on rat tail arteries (rat tail arteries): relaxes rat tail arteries
- effect on cremaster arterioles (cremaster arterioles): graded contraction

Structure (SMILES): COc1cc(CNC(=O)CCCC/C=C/C(C)C)ccc1O [capsaicin]
- effect on staining for CGRP ([9]; capsaicin denervation): significantly decreases
- reduction in CGRP nerve fiber density ([9]; neonatal capsaicin (50 mg/kg s.c.), 8 weeks of age): 40%
- effect of treatment on neurogenic inflammation (neurogenic inflammation): prevented
- effect on Ca2+-induced relaxation ([10]; 20 minutes pre-treatment, 10 μM capsaicin): inhibited/reversed
- effect on Ca2+-induced relaxation ([10]; chronic capsaicin-induced sensory denervation): attenuates; also recorded: significantly attenuated
- effect on staining for perivascular CaR (perivascular CaR): significantly decreases
